From PubChem BioAssay (NCI)
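Cells were grown in 96-well plates and exposed to each compound for 48 hours at five concentrations; endpoints were interpolated linearly between bracketing concentrations, or set to the highest concentration if not reached. GI50 marks 50% less growth. At the TGI there is no net growth.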

Key:
Test in all cases: inhibition of tumour cell growth, NCI panel, 48 h
[1] = tested on: OVCAR-5 ovarian
[2] = tested on: SW-620 colon
[3] = tested on: RXF 393 renal
[4] = tested on: OVCAR-3 ovarian
[5] = tested on: RPMI-8226 leukemia
[6] = tested on: BT-549 breast
[7] = tested on: HT29 colon
[8] = tested on: M14 melanoma
[9] = tested on: SF-268 CNS
[10] = tested on: NCI-H226 lung
[11] = tested on: MALME-3M melanoma
[12] = tested on: NCI/ADR-RES ovarian
[13] = tested on: UACC-62 melanoma
[14] = tested on: U251 CNS
[15] = tested on: HCT-15 colon
[16] = tested on: OVCAR-4 ovarian
[17] = tested on: A549 NSCLC
[18] = tested on: IGROV1 ovarian
[19] = tested on: PC-3 prostate
[20] = tested on: NCI-H460 lung
[21] = tested on: COLO 205 colon
[22] = tested on: CCRF-CEM leukemia
[23] = tested on: OVCAR-8 ovarian
[24] = tested on: MOLT-4 leukemia
[25] = tested on: SF-295 CNS
[26] = tested on: MDA-MB-231 breast
[27] = tested on: MCF7 breast
[28] = tested on: KM12 colon
[29] = tested on: ACHN renal
[30] = tested on: NCI-H522 lung
[31] = tested on: NCI-H23 lung
[32] = tested on: SNB-19 CNS
[33] = tested on: LOX IMVI melanoma
[34] = tested on: 786-0 renal
[35] = tested on: HCT-116 colon
[36] = tested on: UO-31 renal
[37] = tested on: HOP-92 NSCLC
[38] = tested on: TK-10 renal
[39] = tested on: SK-MEL-5 melanoma
[40] = tested on: SK-MEL-28 melanoma
[41] = tested on: SNB-75 CNS
[42] = tested on: HOP-62 NSCLC
[43] = tested on: UACC-257 melanoma
[44] = tested on: MDA-MB-435
[45] = tested on: SN12C renal
[46] = tested on: K-562 leukemia
[47] = tested on: HCC-2998 colon
[48] = tested on: SK-OV-3 ovarian
[49] = tested on: CAKI-1 renal
[50] = tested on: A498 renal
[51] = tested on: T-47D breast
[52] = tested on: HL-60(TB) leukemia
[53] = tested on: SF-539 CNS
[54] = tested on: DU-145 prostate
[55] = tested on: HS 578T breast
[56] = tested on: EKVX NSCLC
[57] = tested on: SR leukemia
[58] = tested on: SK-MEL-2 melanoma

## O=c1c(Cc2ccc3c(c2)OCO3)nnc2sc(-c3cc(F)c(Cl)cc3Cl)nn12
[1]
  GI50: 46.6 µM
  TGI: > 100 µM
[2]
  GI50: 19.4 µM
  TGI: 49.1 µM
[3]
  GI50: 42.7 µM
  TGI: > 100 µM
[4]
  GI50: 38 µM
  TGI: > 100 µM
[5]
  GI50: 30.6 µM
  TGI: > 100 µM
[6]
  GI50: 27.4 µM
  TGI: 56 µM
[7]
  GI50: 35.2 µM
  TGI: > 100 µM
[8]
  GI50: > 100 µM
  TGI: > 100 µM
[9]
  GI50: 41.7 µM
  TGI: > 100 µM
[10]
  GI50: 85.6 µM
  TGI: > 100 µM
[11]
  GI50: 24.7 µM
  TGI: 85.3 µM
[12]
  GI50: 63.7 µM
  TGI: > 100 µM
[13]
  GI50: 75.8 µM
  TGI: > 100 µM
[14]
  GI50: 35.7 µM
  TGI: > 100 µM
[15]
  GI50: 70.6 µM
  TGI: > 100 µM
[16]
  GI50: 59.2 µM
  TGI: > 100 µM
[17]
  GI50: 41.8 µM
  TGI: > 100 µM
[18]
  GI50: 32.3 µM
  TGI: > 100 µM
[19]
  GI50: 35.4 µM
  TGI: > 100 µM
[20]
  GI50: 50.8 µM
  TGI: > 100 µM
[21]
  GI50: 22.6 µM
  TGI: 59.2 µM
[22]
  GI50: 33.9 µM
  TGI: > 100 µM
[23]
  GI50: 36.9 µM
  TGI: > 100 µM
[24]
  GI50: 36 µM
  TGI: > 100 µM
[25]
  GI50: 72.5 µM
  TGI: > 100 µM
[26]
  GI50: 44.9 µM
  TGI: > 100 µM
[27]
  GI50: 38.9 µM
  TGI: > 100 µM
[28]
  GI50: 35.6 µM
  TGI: > 100 µM
[29]
  GI50: 53.8 µM
  TGI: > 100 µM
[30]
  GI50: 33.4 µM
  TGI: > 100 µM
[31]
  GI50: 82.5 µM
  TGI: > 100 µM
[32]
  GI50: 34.3 µM
  TGI: > 100 µM
[33]
  GI50: 44.4 µM
  TGI: > 100 µM
[34]
  GI50: 17.2 µM
  TGI: > 100 µM
[35]
  GI50: 23.5 µM
  TGI: > 100 µM
[36]
  GI50: 50.2 µM
  TGI: > 100 µM
[37]
  GI50: 23 µM
  TGI: 88.4 µM
[38]
  GI50: 22.6 µM
  TGI: 65 µM
[39]
  GI50: 19.3 µM
  TGI: 50.7 µM
[40]
  GI50: 32.2 µM
  TGI: > 100 µM
[41]
  GI50: 28.5 µM
  TGI: > 100 µM
[42]
  GI50: 18.1 µM
  TGI: 64.7 µM
[43]
  GI50: 62.5 µM
  TGI: > 100 µM
[44]
  GI50: 52.9 µM
  TGI: > 100 µM
[45]
  GI50: 62.6 µM
  TGI: > 100 µM
[46]
  GI50: 42.8 µM
  TGI: > 100 µM

## COc1cccc(-c2cc(C(=O)Nc3ccc(/C=C/c4ccc(OC5CCN(C)CC5)cc4)cc3)ccc2OC)c1
[5]
  GI50: 2.18 µM
  TGI: 5.15 µM
[47]
  GI50: 1.83 µM
  TGI: 3.32 µM
[10]
  GI50: 2.07 µM
  TGI: 5.04 µM
[48]
  GI50: 2.1 µM
  TGI: 5.13 µM
[22]
  GI50: 1.93 µM
  TGI: 5.14 µM
[23]
  GI50: 1.96 µM
  TGI: 4.59 µM
[49]
  GI50: 10.6 µM
  TGI: 45.6 µM
[50]
  GI50: 1.39 µM
  TGI: 3.8 µM
[51]
  GI50: 1.7 µM
  TGI: 4.98 µM

## CSc1nc(Nc2cccc(NC(=O)CCl)c2)c(C#N)c(-c2cccc([N+](=O)[O-])c2)n1
[1]
  GI50: 2.45 µM
  TGI: 6.13 µM
[52]
  GI50: 1.82 µM
  TGI: 6.48 µM
[2]
  GI50: 1.93 µM
  TGI: 5.11 µM
[3]
  GI50: 1.54 µM
  TGI: 3.22 µM
[53]
  GI50: 0.216 µM
  TGI: 0.528 µM
[4]
  GI50: 1.77 µM
  TGI: 3.24 µM
[5]
  GI50: 2.1 µM
  TGI: 5.6 µM
[47]
  GI50: 2.07 µM
  TGI: 4.37 µM
[6]
  GI50: 1.79 µM
  TGI: 5.68 µM
[7]
  GI50: 2.36 µM
  TGI: 5.53 µM
[54]
  GI50: 2.25 µM
  TGI: 4.57 µM
[8]
  GI50: 2.01 µM
  TGI: 6.08 µM
[9]
  GI50: 2.24 µM
  TGI: 5.72 µM
[10]
  GI50: 2.15 µM
  TGI: 6.32 µM
[11]
  GI50: 0.191 µM
  TGI: 0.635 µM
[12]
  GI50: 2.38 µM
  TGI: 7.64 µM
[13]
  GI50: 1.35 µM
  TGI: 3.17 µM
[14]
  GI50: 1.6 µM
  TGI: 3.13 µM
[15]
  GI50: 1.66 µM
  TGI: 4.1 µM
[16]
  GI50: 2.06 µM
  TGI: 6.77 µM
[48]
  GI50: 4.36 µM
  TGI: 17.3 µM
[17]
  GI50: 16.6 µM
  TGI: 49.7 µM
[18]
  GI50: 0.214 µM
  TGI: 0.685 µM
[55]
  GI50: 3.21 µM
  TGI: 30.7 µM
[19]
  GI50: 1.61 µM
  TGI: 3.73 µM
[20]
  GI50: 4.12 µM
  TGI: 23.2 µM
[21]
  GI50: 1.82 µM
  TGI: 3.54 µM
[22]
  GI50: 0.34 µM
  TGI: > 100 µM
[23]
  GI50: 2.39 µM
  TGI: 9.37 µM
[24]
  GI50: 1.32 µM
  TGI: 6.37 µM
[25]
  GI50: 9.83 µM
  TGI: 36.4 µM
[26]
  GI50: 2.39 µM
  TGI: 10.7 µM
[27]
  GI50: 0.74 µM
  TGI: 2.44 µM
[28]
  GI50: 1.93 µM
  TGI: 3.92 µM
[29]
  GI50: 0.534 µM
  TGI: 1.91 µM
[30]
  GI50: 1.68 µM
  TGI: 5.36 µM
[31]
  GI50: 1.7 µM
  TGI: 4.35 µM
[32]
  GI50: 2.06 µM
  TGI: 4.78 µM
[49]
  GI50: 2.12 µM
  TGI: 10.4 µM
[33]
  GI50: 0.0373 µM
  TGI: 0.152 µM
[50]
  GI50: 12.4 µM
  TGI: 37.6 µM
[56]
  GI50: 3.36 µM
  TGI: 13.2 µM
[34]
  GI50: 2.94 µM
  TGI: 43.7 µM
[36]
  GI50: 1.62 µM
  TGI: 5.73 µM
[37]
  GI50: 1.92 µM
  TGI: 7.07 µM
[38]
  GI50: 4.2 µM
  TGI: 10.9 µM
[57]
  GI50: 0.387 µM
  TGI: > 100 µM
[39]
  GI50: 1.51 µM
  TGI: 3.28 µM
[40]
  GI50: 2.15 µM
  TGI: 4.28 µM
[41]
  GI50: 0.682 µM
  TGI: 4.8 µM
[58]
  GI50: 2.05 µM
  TGI: 5.22 µM
[42]
  GI50: 2.55 µM
  TGI: 11.4 µM
[43]
  GI50: 2.18 µM
  TGI: 5.2 µM
[44]
  GI50: 2.15 µM
  TGI: 5.16 µM
[45]
  GI50: 2.78 µM
  TGI: 10.3 µM
[46]
  GI50: 2.28 µM
  TGI: > 100 µM
